Assay results published in US20260364080A1, “PYRAZOLO-PYRIMIDINONE COMPOUNDS FOR USE IN METHODS OF INHIBITING WEE1 A KINASE” (Acrivon Therapeutics, Inc., priority 2023, published 2026).
Like-named read-outs stand apart in the source and are kept apart here.

Legend:
[1] = molecular target: T1, Myt1 kinase (recombinant PMYT-1) (Homo sapiens, UniProt Q99640); assay: Myt1 kinase binding assay (LanthaScreen Eu Kinase Binding Assay)
T1 construct: full length PMYT-1 was expressed by baculovirus in insect cells; purchased Invitrogen A30984; host or cells: insect cells (baculovirus)
T1 sequence (Q99640 1-499): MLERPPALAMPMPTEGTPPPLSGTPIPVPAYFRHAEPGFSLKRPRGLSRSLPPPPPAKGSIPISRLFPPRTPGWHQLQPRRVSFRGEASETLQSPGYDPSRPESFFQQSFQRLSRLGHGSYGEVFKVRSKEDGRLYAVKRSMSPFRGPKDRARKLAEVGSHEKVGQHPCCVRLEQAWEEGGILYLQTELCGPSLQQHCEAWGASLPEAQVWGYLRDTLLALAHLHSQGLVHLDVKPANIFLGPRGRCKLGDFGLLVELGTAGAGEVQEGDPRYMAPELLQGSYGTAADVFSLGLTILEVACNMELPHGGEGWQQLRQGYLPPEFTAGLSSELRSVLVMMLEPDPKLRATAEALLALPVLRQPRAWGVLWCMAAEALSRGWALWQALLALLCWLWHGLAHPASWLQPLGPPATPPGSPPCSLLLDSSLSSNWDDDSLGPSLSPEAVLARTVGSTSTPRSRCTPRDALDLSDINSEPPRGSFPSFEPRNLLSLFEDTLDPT
How it was run: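 Compound binding to Myt1 kinase was assessed using the LanthaScreen Eu Kinase Binding Assay. This europium-based binding format was applied to quantify how strongly each compound bound to the Myt1 enzyme, and the binding affinity was reported for each compound as an IC50 value.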

[2] = molecular target: T2, Wee1A kinase (CDK1 Tyr15 phosphorylation in ACHN renal cell carcinoma cells) (Homo sapiens, UniProt P30291); assay: High-content imaging of pCdk1 Y15, Wee1A kinase target engagement in ACHN cells; format: cell-based
T2 construct: pCDK1 Tyr15 immunofluorescence read-out
How it was run: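 EC50 values come from the per-well fraction of cells with nuclear pCdk1 Y15 staining, normalised to DMSO control, by automated immunofluorescence imaging. Cells were ACHN renal carcinoma, treated 4 h with compound at 7–5,000 nM or 0.3–200 nM.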

ACHN cells = assay: Cell Titer Glo viability assay, ACHN cells; format: cell-based; settings: Homo sapiens, 144 h, absolute EC50
Protocol: Each of an ACHN renal cell carcinoma cell line (ATCC) and a DAOY medulloblastoma cell line, and an A427 lung cancer line were cultured in Minimum Essential Medium Eagle supplemented with 10% fetal calf serum (Sigma), 1% Penicillin-Streptomycin and 10 mM HEPES buffer (HyClone). Cell cultures were kept in a humidified incubator at 37 °C and 5% CO2. Cells were routinely tested for Mycoplasma contamination.
ACHN cells, DAOY cells, or A427 cells were seeded at a density of 400, 250, or 500 cells per well respectively, in tissue culture treated 384 well plates (Corning Costar). After overnight incubation, cells were treated with drugs at concentrations ranging from 17 to 10 000 nM. Viability compared to untreated control was assessed at 144 h using Cell Titer Glo assay 2.0 (Promega). […] “NT” means the compounds was not tested in the indicated cells.

[3] = molecular target: T3, recombinant human Wee1A kinase (Homo sapiens, UniProt P30291); assay: Wee1A kinase binding assay (LanthaScreen Eu time-resolved FRET)
T3 construct: full length Wee1 kinase was expressed by baculovirus in insect cells; purchased Invitrogen PV3817; host or cells: insect cells (baculovirus)
How it was run: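 Full-length, baculovirus-expressed GST-tagged Wee1A (5 nM) was mixed with 2 nM Eu-anti-GST antibody, 30 nM kinase tracer 178 and compound (1% DMSO). Buffer was 50 mM HEPES pH 7.5, 10 mM MgCl2, 1 mM EGTA, 0.01% Brij-35, incubated 60 min at room temperature. TR-FRET 665/615 nm emission ratios from duplicates were curve-fitted.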

[4] = 3 nM tracer 178, 2.5 nM PMYT-1, 1 nM Eu-labeled antibody, read-out: Myt1 kinase Binding IC50
[5] = 4 h treatment, nuclear positivity for pCdk1 Y15 vs DMSO control, read-out: CDK1 Tyr15 Phosphorylation EC50
[6] = 30 nM tracer 178, 5 nM Wee1A kinase, 2 nM Eu-labeled antibody, 60 minutes at room temperature, read-out: Wee1A kinase Binding IC50
[7] = Myt1 kinase Binding IC50, 3 nM tracer 178, 2.5 nM PMYT-1, 1 nM Eu-labeled antibody
[8] = read-out: CDK1 Tyr15 Phosphorylation EC50, 4 h treatment, nuclear positivity for pCdk1 Y15 vs DMSO control

T2 sequence (P30291 whole entry): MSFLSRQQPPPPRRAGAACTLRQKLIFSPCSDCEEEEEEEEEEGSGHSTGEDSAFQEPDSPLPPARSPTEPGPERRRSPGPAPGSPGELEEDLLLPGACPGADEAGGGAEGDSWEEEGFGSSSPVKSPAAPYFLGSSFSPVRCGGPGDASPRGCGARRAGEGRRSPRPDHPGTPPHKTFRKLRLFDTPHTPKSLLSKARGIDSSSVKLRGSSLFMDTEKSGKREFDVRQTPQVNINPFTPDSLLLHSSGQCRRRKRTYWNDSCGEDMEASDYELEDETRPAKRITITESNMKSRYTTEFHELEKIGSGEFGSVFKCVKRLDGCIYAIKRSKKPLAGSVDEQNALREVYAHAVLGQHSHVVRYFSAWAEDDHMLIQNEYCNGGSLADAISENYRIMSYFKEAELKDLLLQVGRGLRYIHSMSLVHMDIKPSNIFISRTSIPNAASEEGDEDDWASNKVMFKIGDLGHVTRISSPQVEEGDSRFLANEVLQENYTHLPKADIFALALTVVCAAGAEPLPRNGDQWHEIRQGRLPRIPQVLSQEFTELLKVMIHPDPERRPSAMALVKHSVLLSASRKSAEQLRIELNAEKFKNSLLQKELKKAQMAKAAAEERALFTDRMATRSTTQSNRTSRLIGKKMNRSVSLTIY
T3 sequence (P30291 whole entry): as above

Row | SMILES | IC50 [1, 4] | EC50 [2, 5] | EC50 (ACHN cells) | IC50 [3, 6] | IC50 [1, 7] | EC50 [2, 8] | IC50 [3]
1 | C=CCn1c(=O)c2cnc(Nc3ccc(OCC(F)(F)F)c(C)c3)nc2n1-c1cccc(NC2CCN(C)CC2)n1 [Compound 181, 2-allyl-1-[6-(1-methyl-4-piperidylamino)-2-pyridyl]-6-[4-(2,2,2-trifluoroethoxy)-3-toluidino]-1,2-dihydro-3H-1,2,5,7-tetraazainden-3-one] | 100 to 500 nM | < 100 nM | ≤ 100 nM | < 10 nM |  |  | 
2 | CCn1c(=O)c2cnc(Nc3ccc(F)cc3)nc2n1-c1cccc(OC2CCN(C)CC2)n1 [Compound 290, 2-ethyl-6-(p-fluorophenylamino)-1-[6-(1-methyl-4-piperidyloxy)-2-pyridyl]-1,2-dihydro-3H-1,2,5,7-tetraazainden-3-one] | 100 to 500 nM | 100 to 500 nM | 100 to 500 nM | < 10 nM |  |  | 
3 | C=CCn1c(=O)c2cnc(Nc3ccc4c(cnn4C)c3)nc2n1-c1cccc(N[C@@H]2CCN(CC)C2)n1 [Compound 119, 1-(6-{[(3R)-1-ethylpyrrolidin-3-yl]amino}pyridin-2-yl)-6-[(1-methyl-1H-indazol-5-yl)amino]-2-(prop-2-en-1-yl)-1H,2H,3H-pyrazolo[3,4-d]pyrimidin-3-one] | 100 to 500 nM | < 100 nM | ≤ 100 nM | < 10 nM |  |  | 
4 | C=CCn1c(=O)c2cnc(Nc3ccc4c(cnn4C)c3)nc2n1-c1cccc(N(C)C2CCN(C)CC2)n1 [Compound 118, 1-{6-[N-methyl(1-methyl-4-piperidyl)amino]-2-pyridyl}-2-allyl-6-(1-methyl-1H-indazol-5-ylamino)-1,2-dihydro-3H-1,2,5,7-tetraazainden-3-one] |  |  | ≤ 100 nM |  | > 500 nM | < 100 nM | < 10 nM
5 | C=CCn1c(=O)c2cnc(Nc3ccc(OCC(F)(F)F)cc3)nc2n1-c1ccnc(OC2CCNCC2)n1 [Compound 252, 2-allyl-1-(2-(piperidin-4-yloxy)pyrimidin-4-yl)-6-((4-(2,2,2-trifluoroethoxy)phenyl)amino)-1,2-dihydro-3H-pyrazolo[3,4-d]pyrimidin-3-one] | 20 to 100 nM | < 100 nM | 100 to 500 nM | < 10 nM |  |  | 
6 | C=CCn1c(=O)c2cnc(Nc3cc(C)nc(C)c3)nc2n1-c1cccc(OC2CCN(C)CC2)n1 [Compound 199, 6-[(2,6-dimethylpyridin-4-yl)amino]-1-{6-[(1-methylpiperidin-4-yl)oxy]pyridin-2-yl}-2-(prop-2-en-1-yl)-1H,2H,3H-pyrazolo[3,4-d]pyrimidin-3-one] | 100 to 500 nM | < 100 nM | 100 to 500 nM | < 10 nM |  |  | 
7 | C=CCn1c(=O)c2cnc(Nc3ccc(OCC(C)C)cc3)nc2n1-c1cccc(OC2CCNCC2)n1 [Compound 256, 2-allyl-6-((4-isobutoxyphenyl)amino)-1-(6-(piperidin-4-yloxy)pyridin-2-yl)-1,2-dihydro-3H-pyrazolo[3,4-d]pyrimidin-3-one] | < 20 nM | < 100 nM | ≤ 100 nM | < 10 nM |  |  | 
8 | C=CCn1c(=O)c2cnc(Nc3ccc4c(cnn4C)c3)nc2n1-c1cccc(N(C)C2CCNCC2)n1 [Compound 116, 1-[6-(N-methyl-N-4-piperidylamino)-2-pyridyl]-2-allyl-6-(1-methyl-1H-indazol-5-ylamino)-1,2-dihydro-3H-1,2,5,7-tetraazainden-3-one] |  |  | 100 to 500 nM |  | > 500 nM | < 100 nM | < 10 nM
9 | CCn1c(=O)c2cnc(Nc3ccc4c(cnn4C)c3)nc2n1-c1cccc(OC2CCNCC2)n1 [Compound 306, 2-ethyl-6-(1-methyl-1H-indazol-5-ylamino)-1-[6-(4-piperidyloxy)-2-pyridyl]-1,2-dihydro-3H-1,2,5,7-tetraazainden-3-one] | 20 to 100 nM | 100 to 500 nM | 100 to 500 nM | < 10 nM |  |  | 
10 | C=CCn1c(=O)c2cnc(Nc3ccc(C#N)cc3)nc2n1-c1cccc(OC2CCN(C)CC2)n1 [Compound 301, p-{2-allyl-1-[6-(1-methyl-4-piperidyloxy)-2-pyridyl]-3-oxo-1,2-dihydro-3H-1,2,5,7-tetraazainden-6-ylamino}benzonitrile] | 20 to 100 nM | < 100 nM | ≤ 100 nM | < 10 nM |  |  | 
11 | C=CCn1c(=O)c2cnc(Nc3ccc(F)cc3)nc2n1-c1cccc(OC2CCCN(C)CC2)n1 (centres unmarked) [Compound 317, 2-allyl-6-(p-fluorophenylamino)-1-[6-(1-methyl-4-azepanyloxy)-2-pyridyl]-1,2-dihydro-3H-1,2,5,7-tetraazainden-3-one] | 20 to 100 nM | 100 to 500 nM | 100 to 500 nM | < 10 nM |  |  | 
12 | C=CCn1c(=O)c2cnc(Nc3ccc4c(cnn4C)c3)nc2n1-c1cccc(O[C@@H]2CCCNC2)n1 [Compound 103, 6-[(1-Methyl-1H-indazol-5-yl)amino]-1-{6-[(3R)-piperidin-3-yloxy]pyridin-2-yl}-2-(prop-2-en-1-yl)-1H,2H,3H-pyrazolo[3,4-d]pyrimidin-3-one; bis(trifluoroacetic acid)] | 100 to 500 nM | < 100 nM | 100 to 500 nM | < 10 nM |  |  | 
13 | Cn1ccc2cc(Nc3ncc4c(=O)n(C)n(-c5cccc(OC6CCNCC6)n5)c4n3)ccc21 [Compound 336, 2-methyl-6-((1-methyl-1H-indol-5-yl)amino)-1-(6-(piperidin-4-yloxy)pyridin-2-yl)-1,2-dihydro-3H-pyrazolo[3,4-d]pyrimidin-3-one] | 20 to 100 nM | < 100 nM | 100 to 500 nM | < 10 nM |  |  | 
14 | C=CCn1c(=O)c2cnc(Nc3ccc4scnc4c3)nc2n1-c1cccc(OC2CCNCC2)n1 [Compound 246, 2-allyl-6-(benzo[d]thiazol-5-ylamino)-1-(6-(piperidin-4-yloxy)pyridin-2-yl)-1,2-dihydro-3H-pyrazolo[3,4-d]pyrimidin-3-one] | < 20 nM | < 100 nM | 100 to 500 nM | < 10 nM |  |  | 
15 | C=CCn1c(=O)c2cnc(Nc3ccc4c(cnn4C)c3)nc2n1-c1cccc(OC2CCN(C)CC2)c1 [Compound 220, 2-allyl-6-(1-methyl-1H-indazol-5-ylamino)-1-[m-(1-methyl-4-piperidyloxy)phenyl]-1,2-dihydro-3H-1,2,5,7-tetraazainden-3-one] | 100 to 500 nM | < 100 nM | ≤ 100 nM | < 10 nM |  |  | 
16 | C=CCn1c(=O)c2cnc(Nc3ccc4c(cnn4C)c3)nc2n1-c1cccc(N[C@H]2CCN(C)C2)n1 [Compound 108, 1-{6-[(S)-1-methyl-3-pyrrolidinylamino]-2-pyridyl}-2-allyl-6-(1-methyl-1H-indazol-5-ylamino)-1,2-dihydro-3H-1,2,5,7-tetraazainden-3-one] | 20 to 100 nM | < 100 nM | 100 to 500 nM | < 10 nM |  |  | 
17 | C=CCn1c(=O)c2cnc(Nc3ccc(F)c(C)c3)nc2n1-c1cccc(NC2CCN(C)CC2)n1 [Compound 140, 2-allyl-6-(4-fluoro-3-toluidino)-1-[6-(1-methyl-4-piperidylamino)-2-pyridyl]-1,2-dihydro-3H-1,2,5,7-tetraazainden-3-one] | 100 to 500 nM | < 100 nM | ≤ 100 nM | < 10 nM |  |  | 
